Laboratory results published in ChEMBL document CHEMBL1148819, “Structure, derivatization, and antitumor activity of new griseusins from Nocardiopsis sp” (J Med Chem, 2007).

What was measured:
[1] = tested on: MDA-MB-468; assay: Cytotoxicity against MDA-MB-468 cells after 4 days by monolayer assay; format: functional, cell-based; settings: Homo sapiens, MDA-MB-468, 96 h
[2] = tested on: MDA-MB-231; assay: Cytotoxicity against MDA-MB-231 cells after 4 days by monolayer assay; format: functional, cell-based; settings: Homo sapiens, MDA-MB-231, 96 h
[3] = Cytotoxicity against RXF944L cells after 4 days by monolayer assay; format: functional, cell-based; settings: Homo sapiens, RXF 944L, 96 h
[4] = Cytotoxicity against MAXF583 cells after 2 to 7 days by clonogenic assay; format: functional, cell-based; settings: Homo sapiens
[5] = Cytotoxicity against RXF944LX cells after 2 to 7 days by clonogenic assay; format: functional, cell-based; settings: Homo sapiens, RXF 944LX
[6] = tested on: MCF7; assay: Cytotoxicity against MCF7 cells after 4 days by monolayer assay; format: functional, cell-based; settings: Homo sapiens, MCF7, 96 h
[7] = Cytotoxicity against LXF-1121L cells after 4 days by monolayer assay; format: functional, cell-based; settings: Homo sapiens, 96 h
[8] = Cytotoxicity against PRXF22Rv1 cells after 4 days by monolayer assay; format: functional, cell-based; settings: Homo sapiens, 96 h
[9] = Cytotoxicity against MEXF535 cells after 2 to 7 days by clonogenic assay; format: functional, cell-based; settings: Homo sapiens
[10] = tested on: PAXF736; assay: Cytotoxicity against PAXF736 cells after 2 to 7 days by clonogenic assay; format: functional, cell-based; settings: Homo sapiens
[11] = tested on: RXF 393; assay: Cytotoxicity against RXF393NL cells after 4 days by monolayer assay; format: functional, cell-based; settings: Homo sapiens, RXF 393NL, 96 h
[12] = Cytotoxicity against CXF158 cells after 2 to 7 days by clonogenic assay; format: functional, cell-based; settings: Homo sapiens
[13] = Cytotoxicity against RXF468L cells after 4 days by monolayer assay; format: functional, cell-based; settings: Homo sapiens, 96 h
[14] = tested on: MEXF276L; assay: Cytotoxicity against MEXF276L cells after 4 days by monolayer assay; format: functional, cell-based; settings: Homo sapiens, 96 h
[15] = tested on: MEXF989; assay: Cytotoxicity against MEXF989 cells after 2 to 7 days by clonogenic assay; format: functional, cell-based; settings: Homo sapiens, MEXF 989
[16] = tested on: CCRF-CEM; assay: Cytotoxicity against CCRF-CEM cells after 2 to 7 days by clonogenic assay; format: functional, cell-based; settings: Homo sapiens
[17] = tested on: PAXF546; assay: Cytotoxicity against PAXF546 cells after 2 to 7 days by clonogenic assay; format: functional, cell-based; settings: Homo sapiens
[18] = Cytotoxicity against CXF1103 cells after 2 to 7 days by clonogenic assay; format: functional, cell-based; settings: Homo sapiens
[19] = Cytotoxicity against MEXF394NL cells after 4 days by monolayer assay; format: functional, cell-based; settings: Homo sapiens, MEXF 394NL, 96 h
[20] = Cytotoxicity against CXF264 cells after 2 to 7 days by clonogenic assay; format: functional, cell-based; settings: Homo sapiens
[21] = Cytotoxicity against MAXF1162 cells after 2 to 7 days by clonogenic assay; format: functional, cell-based; settings: Homo sapiens
[22] = Cytotoxicity against human umbilical cord hematopoietic stem cells after 12 days by clonogenic assay; format: cell-based; settings: 288 h
[23] = Cytotoxicity against MEXF520L cells after 4 days by monolayer assay; format: functional, cell-based; settings: Homo sapiens, MEXF 520L, 96 h
[24] = Cytotoxicity against MEXF514L cells after 4 days by monolayer assay; format: functional, cell-based; settings: Homo sapiens, MEXF 514L, 96 h
[25] = Cytotoxicity against MEXF462NL cells after 4 days by monolayer assay; format: functional, cell-based; settings: Homo sapiens, MEXF 462NL, 96 h
[26] = tested on: RXF 393; assay: Cytotoxicity against RXF393 cells after 2 to 7 days by clonogenic assay; format: functional, cell-based; settings: Homo sapiens
[27] = Cytotoxicity against BXF1218L cells after 4 days by monolayer assay; format: functional, cell-based; settings: Homo sapiens, BXF 1218L, 96 h
[28] = Cytotoxicity against MAXF401 cells after 4 days by monolayer assay; format: functional, cell-based; settings: Homo sapiens, MAXF401, 96 h

C[C@@H]1CC(=O)[C@@H](O)[C@]2(O1)O[C@@H]1CC(=O)O[C@@H]1C1=C2C(=O)c2c(O)cccc2C1=O
IC50 [1]: 150 nM
IC50 [2]: 150 nM
IC50 [3]: 95 nM
IC50 [4]: 195 nM
IC50 [5]: 290 nM
IC50 [6]: 150 nM
IC50 [7]: 207 nM
IC50 [8]: 177 nM
IC50 [9]: 137 nM
IC50 [10]: 614 nM
IC50 [11]: 95 nM
IC50 [12]: 257 nM
IC50 [13]: 95 nM
IC50 [14]: 87 nM
IC50 [15]: 295 nM
IC50 [16]: 132 nM
IC50 [17]: 420 nM
IC50 [18]: 257 nM
IC50 [19]: 87 nM
IC50 [20]: 257 nM
IC50 [21]: 455 nM
IC50 [22]: 1190 nM
IC50 [23]: 87 nM
IC50 [24]: 87 nM
IC50 [25]: 87 nM
IC50 [26]: 375 nM
IC50 [27]: 140 nM
IC50 [28]: 150 nM
